Data set [1] deals with isoniazide-induced seizures in mice. Kind of data set: Isoniazide antagonism (isoniazide 300 mg/kg s.c. induced convulsions). It counts as in vivo, mouse. Details: unit: mg/kg. Conditions: i.p. test compound, table does not say whether MED or ED50. The procedure:
Isoniazide 300 mg/kg s.c.
Five mice are used for each dose level.
Immediately after administration of test substance, isoniazide 300 mg/kg is injected s.c. This dose of isoniazide induces intermittent tonic clonic seizures within 60 minutes.
The calculations are performed as an "on line procedure" on the EDP-terminal. […] ED50 is determined as the dose in mg/kg which increases the time 50%.

The target in data set [2] is ^3 H-GABA binding to rat brain membranes. Description: ^3 H-GABA binding to rat brain membranes. Particulars: 10 nM ^3 H-GABA, on ice 5 min.
Method: 0.32 M sucrose (made fresh every day)
0.05 N Tris-citrate buffer (pH ~6.8)
^3 H-GABA=aminobutyric acid, γ-2,3-^3 H(N) approx.
35 Ci/mmol, from New England Nuclear
(diluted daily to 1 μM in water)
A. Preparation of membranes
Rats are killed by a blow to their head, exsanguinated and their brains removed and cooled in icecold saline. After rinsing and weighing two brains are pooled and homogenized in 40 ml of icecold 0.32 M sucrose using a motor-driven homogenizer with teflon pestle (6 strokes up and down, slow speed rotation).
The samples are centrifuged for 10 min. at 900 g, and thereafter the supernatants are centrifuged for 20 min. at 17,000 g (4° C.). […]
Incubation tubes in duplicate receive on ice 780 μl of water, 200 μl of drug dissolved in water, 20 μl of 1 μM ^3 H-GABA (final concentration of ^3 H-GABA in tubes=10 nM) and 1000 μl of the membrane suspension. […] Ten ml of Instagel or Lumagel containing 10 ml of acetic acid per 1 are added, and the radioactivity are determined by liquid scintillation counting. The unspecific binding of ^3 H-GABA is determined by incubating the samples with 1 mM of GABA. […]
The means of controls and 1 mM GABA samples are calculated. […] The IC50-values are determined as the concentrations, at which the binding is 50 percent of the total binding minus the unspecific binding.
The subject of data set [3] is mouse pain threshold. Description: Mouse grid shock (analgesic effect, pain threshold). Particulars: male mice, + not defined. It counts as in vivo. The protocol: The mouse grid consists of a perspex cage with wire grid bottom and a perspex lid, on which is placed a microphone sensitive to the frequency of a mouse-squeak. A stimulator with motordriven potentiometer applies a sequence of square wave impulses of continuously increasing milliamperage to the grid. Frequency of impulses 20 cycles/sec., duration 5 msec. Milliamperage is recorded on a digital amperemeter connected to the stimulator. Activation of the microphone by a mouse-squeak cuts off the current and the final milliamperage appear on the meter.
Five mice are used for each dose level. Each mouse serves as its own control.
Prior to the administration of test substance the animals are placed on the grid one at a time and the pain threshold is determined by increasing the current intensity until the mouse squeaks. The pain threshold may be read on the milliamperemeter.
Fifteen minutes and 30 minutes after administration of test substance the mice are tested again and the pain thresholds recorded.
Analgesic effect is present when the pain threshold is increased over the pre-dosing value (control value). The results are stated as % increase in pain threshold calculated on the basis of the control value. The registration can also be done as an on-line procedure. […]

The conditions of data set [4]: THIP, prior art; cited from earlier work.
For data set [5] the following is noted: THIP, European Patent Application No. 78 100 191.2; cited from earlier work.

These results are taken from US4353910A, “Derivatives of 4,5,6,7-tetrahydroisoxazolo [5,4-c] pyridine-3-one, pharmaceutical compositions and methods of treatment” (priority 1981, dated 1982).

For the compound `CC(=O)n1oc2c(c1=O)CCNC2` [Example 3, 2-Acetyl-4,5,6,7-tetrahydroisoxazolo[5,4-c]-pyridine-3-one], in data set [1], the Isoniazide antagonism entry was “weak effect”. For the same compound, the IC50 – broadly, the concentration at which inhibition is half-maximal – in data set [2] was greater than 100 µM. Besides, the Mouse grid shock result in data set [3] is “no effect”.

Turning to `NC(=O)n1oc2c(c1=O)CCNC2` [Example 5, 2-Carbamoyl-4,5,6,7-tetrahydroisoxazolo[5,4-c]-pyridine-3-one], the Isoniazide antagonism in data set [1] was found to be 5.8.

For the compound `CNC(=O)n1oc2c(c1=O)CCNC2` [Example 6, 2-(N-methylcarbamoyl)-4,5,6,7-tetrahydroisoxazolo[5,4-c]pyridine-3-one], in data set [1], the Isoniazide antagonism is listed as 1.3.

In data set [1], `O=C(NC1CCCCC1)n1oc2c(c1=O)CCNC2` [Example 7, 2-(N-cyclohexylcarbamoyl)-4,5,6,7-tetrahydroisoxazolo[5,4-c]pyridine-3-one] registered an Isoniazide antagonism of 2.1.

For `Oc1noc2c1CCNC2` [THIP, 4,5,6,7-tetrahydroisoxazolo[5,4-c]pyridine-3-ol], in data set [4], the duration of action entry was “relatively shortacting” and the side effects entry is listed as “some side effects”. The GABA-related activity result in data set [5] is given as “having GABA-related activity”. For the same compound, the Isoniazide antagonism in data set [1] is 1.3.
